Assay results published in US10538512B2, “Aminoacylindazole immunomodulators for treatment of autoimmune diseases” (The Rockefeller University, priority 2016, dated 2020).

Assays:
[1] = biological target: T1, Human alpha-thrombin (Homo sapiens, UniProt P00734); assay: Thrombin counterscreen for selectivity, fluorogenic substrate assay; format: biochemical; details: Human alpha-thrombin 12.5 nM, Boc-Val-Pro-Arg-AMC 20 μM, 10 min preincubation
T1 construct: Human alpha-thrombin (Enzyme Research Labs); purchased Enzyme Research Labs
Protocol: Counterscreens for Selectivity:
In a 96-well white opaque plate, 80 μl of assay buffer was added to each well. Test compounds were added, and serially diluted as above, to generate a concentration range of approximately 1-100 μM. […] 80 μl of this enzyme solution was added to the assay wells. The enzyme/compound mixtures were incubated for 10 minutes at room temperature. Fluorogenic substrate (Boc-Val-Pro-Arg-7-amido-4-methylcoumarin; Sigma) was added to assay wells at a final concentration of 20 μM. The assay plate was spun for 1 minute at 1500 g and then read at 37° C. in a SpectraMax M2 plate reader (λex=380 nm and λem=460 nm). Activity was quantified as the rate of change in fluorescence, which corresponds to the rate of substrate cleavage.

[2] = biological target: T2, Human FXIIa (Homo sapiens, UniProt P00748); assay: Factor XIIa (FXIIa) inhibitory activity, chromogenic substrate assay; format: biochemical; details: Human FXIIa 12.5 nM, Pefachrome XIIa 400 μM, 10 min preincubation
T2 construct: active coagulation factor XII (FXIIa); purchased Enzyme Research Labs
T2 sequence (P00748 373-615 limits assumed): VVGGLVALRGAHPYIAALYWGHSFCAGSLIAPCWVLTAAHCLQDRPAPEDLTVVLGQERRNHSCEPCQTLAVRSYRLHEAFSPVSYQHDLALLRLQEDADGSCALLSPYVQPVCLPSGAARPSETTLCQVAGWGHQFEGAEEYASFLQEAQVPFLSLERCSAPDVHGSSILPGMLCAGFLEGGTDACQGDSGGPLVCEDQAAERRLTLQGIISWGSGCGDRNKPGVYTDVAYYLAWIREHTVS
T2 sequence (P00748 20-372 partner limits assumed): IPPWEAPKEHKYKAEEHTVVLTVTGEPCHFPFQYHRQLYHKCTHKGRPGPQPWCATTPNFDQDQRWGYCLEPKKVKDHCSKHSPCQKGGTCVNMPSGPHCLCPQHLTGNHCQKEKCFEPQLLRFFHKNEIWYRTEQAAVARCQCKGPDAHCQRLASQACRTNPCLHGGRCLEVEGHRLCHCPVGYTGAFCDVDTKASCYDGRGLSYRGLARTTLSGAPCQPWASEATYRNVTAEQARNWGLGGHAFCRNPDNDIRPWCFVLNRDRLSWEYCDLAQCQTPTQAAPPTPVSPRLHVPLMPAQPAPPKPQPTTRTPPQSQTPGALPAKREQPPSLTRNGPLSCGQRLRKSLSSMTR
Summary of the method: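 Activity was taken as the rate of absorbance increase at 405 nm, read at 37 °C after adding 400 μM (final) Pefachrome XIIa. Compounds spanning roughly 1–100 μM were first preincubated with enzyme for 10 min at room temperature in HEPES pH 7.4-buffered HBSS/TBS-Tween.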

| SMILES | IC50 [1] | IC50 [2] |
| --- | --- | --- |
| Cc1cccc2c1NCC[C@@H]2C(=O)n1nc2c(c1N)CC[C@H](O)C2 (single isomer, unassigned) [Example 198, ((6S*)-3-amino-6-hydroxy-4,5,6,7-tetrahydroindazol-2-yl)((4S*)-8-methyl-1,2,3,4-tetrahydroquinolin-4-yl)methanone] | > 100 µM | 0.1 µM |
| Nc1nn(C(=O)c2cccc3[nH]c(Br)cc23)c2c1CCCC2 (single isomer, unassigned) [Example 63, (3-amino-4,5,6,7-tetrahydroindazol-1-yl)(2-bromo-1H-indol-4-yl)methanone] | > 100 µM | 65 µM |
| C=Cc1cc2c(C(=O)n3nc4c(c3N)CCCC4)cccc2[nH]1 (single isomer, unassigned) [Example 70, (3-amino-4,5,6,7-tetrahydroindazol-2-yl)(2-vinyl-1H-indol-4-yl)methanone] | 13 µM | 0.02 µM |
| Nc1nn(C(=O)[C@@H]2CCNc3ccccc32)c2c1C[C@@H](O)CC2 (single isomer, unassigned) [Example 172, ((5S*)-3-amino-5-hydroxy-4,5,6,7-tetrahydroindazol-1-yl)((4R*)-1,2,3,4-tetrahydroquinolin-4-yl)methanone] | > 100 µM | > 100 µM |
| Nc1c2c(nn1C(=O)c1cccc3c1ccn3Cc1ccccc1)CCCC2 [Example 30, (3-amino-4,5,6,7-tetrahydroindazol-2-yl)(1-benzyl-1H-indol-4-yl)methanone] | > 70 µM | 5 µM |
| Cc1cc2c(s1)CCCC2C(=O)n1nc2c(c1N)CCCC2 (stereo not shown) [Example 86, (3-amino-4,5,6,7-tetrahydroindazol-2-yl)(2-methyl-4,5,6,7-tetrahydrobenzo[b]thiophen-4-yl)methanone] | > 80 µM | 0.5 µM |
| Nc1nn(C(=O)[C@H]2CCNc3ccccc32)c2c1C[C@H](O)CC2 (single isomer, unassigned) [Example 167, ((5R*)-3-amino-5-hydroxy-4,5,6,7-tetrahydroindazol-1-yl)((4S*)-1,2,3,4-tetrahydroquinolin-4-yl)methanone] | > 80 µM | > 80 µM |
| Cc1cc2c(C(=O)n3nc4c(c3N)CCCC4)cccc2o1 (single isomer, unassigned) [Example 58, (3-amino-4,5,6,7-tetrahydroindazol-2-yl)(2-methylbenzofuran-4-yl)methanone] | 40 µM | 0.06 µM |
| Nc1c2c(nn1C(=O)c1csc3ccccc13)CCCC2 [Example 32, (3-amino-4,5,6,7-tetrahydroindazol-2-yl)(benzo[b]thiophen-3-yl)methanone] | > 50 µM | 0.15 µM |
| O=C(c1cccc2[nH]ccc12)n1cc2c(n1)CCCC2 [Example 27, (1H-indol-4-yl)(4,5,6,7-tetrahydroindazol-2-yl)methanone] | 6 µM | 0.4 µM |
| Cc1cc2c(C(=O)n3nc4c(c3N)CCCC4)cccc2n1C [Example 22, (3-Amino-4,5,6,7-tetrahydroindazol-2-yl)(1,2-dimethyl-1H-indol-4-yl)methanone] | 20 µM | 0.04 µM |
| Nc1nn(C(=O)[C@H]2CCNc3ccccc32)c2c1C[C@@H](O)CC2 (single isomer, unassigned) [Example 171, ((5S*)-3-amino-5-hydroxy-4,5,6,7-tetrahydroindazol-1-yl)((4S*)-1,2,3,4-tetrahydroquinolin-4-yl)methanone] | > 90 µM | > 90 µM |
| Nc1c2c(nn1C(=O)[C@H]1CCNc3ccc(F)cc31)C[C@H](O)CC2 (single isomer, unassigned) [Example 185, ((6R*)-3-amino-6-hydroxy-4,5,6,7-tetrahydroindazol-2-yl)((4S*)-6-fluoro-1,2,3,4-tetrahydroquinolin-4-yl)methanone] | > 100 µM | 0.07 µM |
| Nc1c2c(nn1C(=O)[C@H]1CCNc3ccc(Cl)cc31)CC[C@H](O)C2 (single isomer, unassigned) [Example 143, ((5S*)-3-amino-5-hydroxy-4,5,6,7-tetrahydroindazol-2-yl)((4S*)-6-chloro-1,2,3,4-tetrahydroquinolin-4-yl)methanone] | > 80 µM | 1.3 µM |
| Cc1cc2c(C(=O)n3nc4c(c3N)CCCC4)cccc2[nH]1 (single isomer, unassigned) [Example 9, (3-Amino-4,5,6,7-tetrahydroindazol-2-yl)(2-methyl-1H-indol-4-yl)methanone] | 40 µM | 0.02 µM |
| Nc1c2c(nn1C(=O)[C@H]1CCNc3ccc(F)cc31)CC[C@@H](F)C2 (single isomer, unassigned) [Example 137, ((5R*)-3-amino-5-fluoro-4,5,6,7-tetrahydroindazol-2-yl)((4S*)-6-fluoro-1,2,3,4-tetrahydroquinolin-4-yl)methanone] | 29 µM | 0.06 µM |
| Cn1ccc2c(C(=O)n3nc(N)c4c3CCCC4)cccc21 (single isomer, unassigned) [Example 8, (3-amino-4,5,6,7-tetrahydroindazol-1-yl)(1-methyl-1H-indol-4-yl)methanone] | > 50 µM | > 50 µM |
| Cc1[nH]c2ccccc2c1C(=O)n1nc(N)c2c1CCCC2 [Example 154] | > 50 µM | 17 µM |
| Nc1c2c(nn1C(=O)c1cccc3[nH]c(Br)cc13)CCCC2 (single isomer, unassigned) [Example 62, (3-amino-4,5,6,7-tetrahydroindazol-2-yl)(2-bromo-1H-indol-4-yl)methanone] | 20 µM | 0.01 µM |
| Nc1c2c(nn1C(=O)[C@H]1CCNc3ccc(F)cc31)C[C@@H](O)CC2 (single isomer, unassigned) [Example 183, ((6S*)-3-amino-6-hydroxy-4,5,6,7-tetrahydroindazol-2-yl)((4S*)-6-fluoro-1,2,3,4-tetrahydroquinolin-4-yl)methanone] | > 100 µM | 0.6 µM |
| Nc1nn(C(=O)C2OCCc3ccccc32)c2c1CCCC2 (single isomer, unassigned) [Example 15, (3-amino-4,5,6,7-tetrahydroindazol-1-yl)(isochroman-1-yl)methanone] | > 100 µM | > 100 µM |
| Nc1c2c(nn1C(=O)[C@H]1CCCc3[nH]c(Cl)cc31)CC[C@@H](O)C2 (single isomer, unassigned) [Example 125] | > 100 µM | 1.4 µM |
| CCc1cc2c(C(=O)n3nc4c(c3N)CCCC4)cccc2n1CC (single isomer, unassigned) [Example 68, (3-amino-4,5,6,7-tetrahydroindazol-2-yl)(1,2-diethyl-1H-indol-4-yl)methanone] | 40 µM | 0.01 µM |
| Cc1cc2ccc(C(=O)n3nc4c(c3N)CCCC4)cc2o1 [Example 60, (3-amino-4,5,6,7-tetrahydroindazol-2-yl)(2-methylbenzofuran-6-yl)methanone] | 22 µM | 17 µM |
| CCC(C)n1ccc2c(C(=O)n3nc4c(c3N)CCCC4)cccc21 (stereo not shown) [Example 37, (3-amino-4,5,6,7-tetrahydroindazol-2-yl)(1-sec-butyl-1H-indol-4-yl)methanone] | > 75 µM | 2.5 µM |
| Cc1cc2c(C(=O)n3nc4c(c3N)CC(F)(F)CC4)cccc2[nH]1 [Example 121, (3-amino-5,5-difluoro-4,5,6,7-tetrahydro-2H-indazol-2-yl)(2-methyl-1H-indol-4-yl)methanone] | 9 µM | 0.02 µM |
| Cc1cc2ccc(C(=O)n3nc(N)c4c3CCCC4)cc2o1 [Example 61, (3-amino-4,5,6,7-tetrahydroindazol-1-yl)(2-methylbenzofuran-6-yl)methanone] | 20 µM | > 50 µM |
| Nc1c2c(nn1C(=O)C1CCNc3ccc(F)cc31)CCC(NC(=O)OCc1ccccc1)C2 (single isomer, unassigned) [Example 190, Benzyl N-[(5S*)-3-amino-2-[(6-fluoro-1,2,3,4-tetrahydroquinolin-4-yl)carbonyl]-4,5,6,7-tetrahydro-2H-indazol-5-yl]carbamate] | > 60 µM | 0.4 µM |
| Nc1c2c(nn1C(=O)[C@H]1CCCc3[nH]c(Cl)cc31)CC[C@H](O)C2 (single isomer, unassigned) [Example 127, ((5S*)-3-amino-5-hydroxy-4,5,6,7-tetrahydroindazol-2-yl)((4S*)-2-chloro-4,5,6,7-tetrahydro-1H-indol-4-yl)methanone] | > 80 µM | 0.35 µM |
